Measurements published in ChEMBL document CHEMBL1201862, “PubChem BioAssay data set” (2004).
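Method: 48-hour compound exposure of cells in 96-well plates, five concentrations, linear interpolation of endpoints. GI50 = concentration required for 50% inhibition of growth.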 The source made the active and inactive calls. Cut-off read from the data, not from the text of the source: active = GI50 up to about 1.1 µM and inactive = higher.

Assays:
Assay in all cases: NCI anticancer screen, dose series, 48 h
[1] = test system: 786-0
[2] = test system: ACHN
[3] = test system: CCRF-CEM
[4] = test system: DU-145
[5] = test system: HCC 2998
[6] = test system: HCT-116
[7] = test system: HOP-92
[8] = test system: Hs-578T
[9] = test system: LOX IMVI
[10] = test system: M14
[11] = test system: MCF7
[12] = test system: MOLT-4
[13] = test system: OVCAR-3
[14] = test system: OVCAR-5
[15] = test system: PC-3
[16] = test system: SF-268
[17] = test system: SF-295
[18] = test system: SNB-19
[19] = test system: SNB-75
[20] = test system: K562

CC(C)(C)OC(=O)N1CCC(C(=O)O)CC1
GI50 [1]: > 100 µM (inactive)
GI50 [2]: > 100 µM (inactive)
GI50 [3]: > 100 µM (inactive)
GI50 [4]: > 100 µM (inactive)
GI50 [5]: > 100 µM (inactive)
GI50 [6]: > 100 µM (inactive)
GI50 [7]: > 100 µM (inactive)
GI50 [8]: > 100 µM (inactive)
GI50 [9]: > 100 µM (inactive)
GI50 [10]: > 100 µM (inactive)
GI50 [11]: > 100 µM (inactive)
GI50 [12]: > 100 µM (inactive)
GI50 [13]: > 100 µM (inactive)
GI50 [14]: > 100 µM (inactive)
GI50 [15]: > 100 µM (inactive)
GI50 [16]: > 100 µM (inactive)
GI50 [17]: > 100 µM (inactive)
GI50 [18]: > 100 µM (inactive)
GI50 [19]: > 100 µM (inactive)

CCOC(=O)N/N=C/C1=NN(C(=O)OCC)[S+]([O-])C1C (stereo unspecified)
GI50 [1]: > 100 µM (inactive)
GI50 [2]: > 100 µM (inactive)
GI50 [3]: > 100 µM (inactive)
GI50 [4]: > 100 µM (inactive)
GI50 [5]: > 100 µM (inactive)
GI50 [6]: > 100 µM (inactive)
GI50 [7]: > 100 µM (inactive)
GI50 [8]: > 100 µM (inactive)
GI50 [20]: > 100 µM (inactive)
GI50 [10]: > 100 µM (inactive)
GI50 [11]: > 100 µM (inactive)
GI50 [12]: > 100 µM (inactive)
GI50 [13]: > 100 µM (inactive)
GI50 [14]: > 100 µM (inactive)
GI50 [15]: > 100 µM (inactive)
GI50 [16]: > 100 µM (inactive)
GI50 [17]: > 100 µM (inactive)
GI50 [18]: > 100 µM (inactive)
GI50 [19]: > 100 µM (inactive)

O=[N+]([O-])c1ccc(/C=N/n2c(S)nnc2CCc2nnc(S)n2/N=C/c2ccc([N+](=O)[O-])o2)o1
GI50 [1]: 17.1 µM (inactive)
GI50 [2]: 23.1 µM (inactive)
GI50 [3]: 20 µM (inactive)
GI50 [4]: 16.2 µM (inactive)
GI50 [5]: 17.6 µM (inactive)
GI50 [6]: 15.3 µM (inactive)
GI50 [7]: 17.2 µM (inactive)
GI50 [8]: 25.5 µM (inactive)
GI50 [20]: 28.6 µM (inactive)
GI50 [9]: 20.4 µM (inactive)
GI50 [10]: 19.2 µM (inactive)
GI50 [11]: 18.1 µM (inactive)
GI50 [12]: 24.8 µM (inactive)
GI50 [13]: 24.6 µM (inactive)
GI50 [14]: > 100 µM (inactive)
GI50 [15]: 82.6 µM (inactive)
GI50 [16]: 22.3 µM (inactive)
GI50 [17]: > 100 µM (inactive)

CCC12CCCN3CCc4c(n(c5ccccc45)C(O)(C(=O)OC)C1)C32 (stereo unspecified)
GI50 [1]: > 100 µM (inactive)
GI50 [2]: > 100 µM (inactive)
GI50 [3]: > 100 µM (inactive)
GI50 [4]: > 100 µM (inactive)
GI50 [5]: > 100 µM (inactive)
GI50 [6]: > 100 µM (inactive)
GI50 [7]: > 100 µM (inactive)
GI50 [8]: > 100 µM (inactive)
GI50 [9]: > 100 µM (inactive)
GI50 [10]: > 100 µM (inactive)
GI50 [11]: > 100 µM (inactive)
GI50 [12]: > 100 µM (inactive)
GI50 [13]: > 100 µM (inactive)
GI50 [14]: > 100 µM (inactive)
GI50 [15]: > 100 µM (inactive)
GI50 [16]: > 100 µM (inactive)
GI50 [17]: > 100 µM (inactive)
GI50 [18]: > 100 µM (inactive)
GI50 [19]: > 100 µM (inactive)

COc1ccc(C(=O)c2sc(Nc3ccccc3)nc2N)cc1
GI50 [1]: 13.1 µM (inactive)
GI50 [2]: > 100 µM (inactive)
GI50 [3]: 1.17 µM (inactive)
GI50 [4]: > 68.9 µM (inactive)
GI50 [5]: > 100 µM (inactive)
GI50 [7]: 50.1 µM (inactive)
GI50 [8]: 23.3 µM (inactive)
GI50 [20]: 2.25 µM (inactive)
GI50 [9]: > 100 µM (inactive)
GI50 [10]: > 100 µM (inactive)
GI50 [11]: 4.9 µM (inactive)
GI50 [12]: 2.16 µM (inactive)
GI50 [13]: > 26.9 µM (inactive)
GI50 [14]: > 100 µM (inactive)
GI50 [15]: > 72.8 µM (inactive)
GI50 [16]: 28.4 µM (inactive)
GI50 [17]: 32.4 µM (inactive)
GI50 [18]: 22.7 µM (inactive)

COC(=O)C(Cc1ccc(Oc2cc(CC(NC(=O)c3ccccc3)C(=O)OC)ccc2OC)cc1)NC(=O)c1ccccc1 (stereo unspecified)
GI50 [1]: 7.83 µM (inactive)
GI50 [2]: 6.82 µM (inactive)
GI50 [4]: 16.9 µM (inactive)
GI50 [5]: 13.5 µM (inactive)
GI50 [6]: 30.3 µM (inactive)
GI50 [7]: 21.6 µM (inactive)
GI50 [8]: 23 µM (inactive)
GI50 [20]: 2.01 µM (inactive)
GI50 [9]: 8.26 µM (inactive)
GI50 [10]: 6.95 µM (inactive)
GI50 [11]: 16.6 µM (inactive)
GI50 [12]: 0.948 µM (active)
GI50 [13]: 24.7 µM (inactive)
GI50 [14]: > 100 µM (inactive)
GI50 [15]: 22.7 µM (inactive)
GI50 [16]: 19.7 µM (inactive)
GI50 [17]: > 77.6 µM (inactive)
GI50 [18]: 35.5 µM (inactive)
GI50 [19]: 29.7 µM (inactive)

Clc1ccc(Cl)c(/N=N\c2cc3c4c(c2)CCN4CCC3)c1
GI50 [1]: > 10 µM (inactive)
GI50 [2]: > 10 µM (inactive)
GI50 [3]: > 10 µM (inactive)
GI50 [4]: > 10 µM (inactive)
GI50 [5]: > 10 µM (inactive)
GI50 [6]: > 10 µM (inactive)
GI50 [7]: > 10 µM (inactive)
GI50 [8]: > 10 µM (inactive)
GI50 [20]: > 10 µM (inactive)
GI50 [9]: > 10 µM (inactive)
GI50 [10]: > 10 µM (inactive)
GI50 [11]: > 10 µM (inactive)
GI50 [12]: > 10 µM (inactive)
GI50 [13]: > 10 µM (inactive)
GI50 [15]: > 10 µM (inactive)
GI50 [16]: > 10 µM (inactive)
GI50 [17]: > 10 µM (inactive)
GI50 [18]: > 10 µM (inactive)
GI50 [19]: > 10 µM (inactive)
